The experiment relates to CEM cells HIV-1 protection, formazan growth assay. Description: NCI AIDS Antiviral Assay. Conditions: for IC50: measured here: growth of uninfected CEM cells. In outline: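 Soluble formazan readout of cell growth; CEM cells ± HIV-1; 5 drug concs. ≥50% protection → retest; ≥50% again = moderately active; reproducible 100% = confirmed active.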

Molecules are shown by their SMILES. “And” between values parts separate entries of the source, which are not always exact repeats. Identical values can stand only once. The source made the active and inactive calls.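 The calls were made as follows: active = compounds giving half or more protection of infected cells from virus-caused growth loss, again on retest; inactive = the rest.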

As a reminder, the EC50 is the midpoint of the concentration-response curve. By IC50 is commonly meant the concentration that inhibits the measured activity by half. Read a low IC50 as inhibition by little substance. Consider `COc1ccc(Cl)c(CCCCCCCC(=O)O)c1`, for which the EC50 is over 200 µM and the IC50 was over 200 µM.

In the case of `C[n+]1c2ccccc2c(NC(CCCN=C(N)N)C(=O)O)c2ccccc21` (stereo not given), the result was inactive.

Take `CCOC(=O)c1ccc(-c2ccc(Cl)cc2)[nH]1`: the EC50 was over 200 µM and the IC50 was 44.7 µM.

Regarding `CCCCNC1=C(C(=O)OCC)/C(=N/NC(=O)c2ccccc2O)CO1`, the EC50 was over 83.2 µM and the IC50 was 13.2 µM.

As to `Oc1cc2c(cc1C(c1cc3c(cc1O)OCO3)c1cc3c(cc1O)OCO3)OCO2`, the EC50 was over 117 µM and the IC50 was found to be 22.4 µM.

For `CSc1nn(C)cc2nc(C)nc1-2`, the EC50 was over 200 µM and the IC50 is over 200 µM.

`N#Cc1c(-c2ccccc2)c(-c2ccccc2)cc2c(=O)c3ccc(Cl)cc3[nH]c12`: the EC50 was over 33.1 µM and the IC50 is over 33.1 µM.

`Cc1nc(N)c(N2CCN(S(N)(=O)=O)CC2)c(=O)[nH]1`: the EC50 is over 200 µM and the IC50 was over 200 µM.

Take `Cc1cc(C)nc(NS(=O)(=O)c2ccc(Nc3c4ccc(Cl)cc4nc4c(C(=O)Nc5ccc(S(=O)(=O)N=C(N)N)cc5)cccc34)cc2)n1`: the EC50 is over 49 µM and the half-maximal inhibitory concentration (IC50) was over 49 µM.

Regarding `Cc1cc(N(CCC#N)CCC#N)ccc1/C=C(\NC(=O)/C=C/c1ccccc1)C(=O)NN`, the outcome was inactive.

As for `COc1ccc(C(=O)/C=C/c2ccc(OCCCOc3ccc(/C=C/C(=O)c4ccc(OC)c(OC)c4)cc3)cc2)cc1OC`, the EC50 is over 200 µM and the IC50 is over 200 µM.

Turning to `Cc1cccc(Nc2nc(NNC(=O)Cc3ccccc3)nc(NNC(=O)c3ccncc3)n2)c1`, the EC50 was over 100 µM and the IC50 is over 100 µM.

With `CC(=O)Nc1ccc2c(C(=O)O)c(C)c(=O)[nH]c2n1`, the EC50 is over 200 µM and the IC50 was determined as 112 µM.

With `COc1ccc(SSc2ccc(OC)cc2C(=O)O)c(C(=O)O)c1`, the EC50 was over 200 µM and the IC50 was over 200 µM.

For `CC(=O)N(O)Cc1ccccc1`, the EC50 was over 1510 µM and the IC50 was 692 µM.

Take `O=C(NN1C(=O)C(Cl)C1c1cccc([N+](=O)[O-])c1)c1ccccc1O` (stereo not given): the EC50 is over 27.5 µM and the IC50 is over 27.5 µM.

Regarding `O=S(=O)(c1ccccn1)c1nc2ccccc2s1`, the result was inactive.

Turning to `CC(=O)Nc1c2sscc-2n(C)c1=O`, the EC50 was over 16.6 µM and the IC50 came out at 0.891 µM.

On to `CC[C@@]1(C(=O)OC)C=CCN2C(=O)OC(C)(C)C21` (stereo not given in full), for which the outcome was inactive.

`CCCn1c(SCC)c2ccccc2c1-c1nc(F)nc(F)n1`: the EC50 was over 8.13 µM and the IC50 was over 8.13 µM.

Take `CC1(C)SCCCCCCCSC(C)(C)SCCCCCCCS1`: the EC50 is over 63.1 µM and the IC50 was over 63.1 µM.

Take `COc1ccc(C[C@H]2COC(=O)[C@@H]2Cc2cccc(Br)c2)cc1OC`: the EC50 is over 200 µM and the IC50 amounted to 31.6 µM.

In the case of `CSC(=S)CC(O)[C@@H]1CC2c3ccccc3C1c1ccccc12` (stereo not given in full), the EC50 was over 200 µM and the IC50 is 3.47 µM.

As to `COCN1C(=O)C2CC(/C=C/C(N)=O)=CN2C(=O)c2ccccc21` (stereo not given), the outcome was inactive.

In the case of `COc1ccc(/C=C(/C(C)=O)C(=O)c2ccccc2)cc1`, the EC50 is over 129 µM and the IC50 was found to be 38 µM.

For the molecule `Cc1ccc(-c2cc(-c3ccco3)c(C#N)c(=S)n2C2OC(CO)C(O)C(O)C2O)cc1` (stereo not given), the EC50 was over 200 µM; the IC50 is 9.33 µM and 57.5 µM.

For `CCOC(OCC)/C(C)=N/[N+](C)(C)C`, the EC50 was over 200 µM and the IC50 was over 200 µM.

In the case of `CCCCCCCCC(O)c1ccc(/C=C\C(O)CCCC(=O)O)s1` (stereo not given), the EC50 was over 63.1 µM and the IC50 is over 63.1 µM.

As to `CC(C)NCC(O)COC(=O)c1cccs1` (stereo not given), the outcome was inactive.

Consider `COC(=O)C12CN(C)CC(C(=O)OC)(C1=O)C(c1ccccn1)N(C)C2c1ccccn1` (stereo not given), for which the EC50 was over 51.3 µM and the IC50 amounted to 36.3 µM.

As to `N#CC(C#N)=Cc1c[nH]c2ccccc12`, the result was inactive.

Consider `O=C1c2ccccc2C(=Nc2ccc3ccccc3c2)C1(C1=C(c2ccccc2)C(=Nc2ccc3ccccc3c2)c2ccccc21)c1ccccc1` (stereo not given), for which the EC50 is over 200 µM and the IC50 turned out to be 11.7 µM.

For the molecule `CCCCOP(=S)(OCCCC)SC1(SC)SSC=C1CC(C)(C)C` (stereo not given), the outcome was inactive.

Take `Nc1ccn(CC(=O)NCCO)c(=O)n1`: the EC50 was over 200 µM and the IC50 was over 200 µM.

With `OC1NC2CC3NC(O)C(O)NC3CC2NC1O` (stereo not given), the EC50 is over 100 µM and the IC50 was over 100 µM.

Consider `O=C/C1=C/C2=Cc3ccccc3C=C(/C=C(/C=O)C1)C2`, for which the EC50 is over 100 µM and the IC50 is 43.7 µM.

Consider `Clc1ccc(OCCSCCCCCCCCCCSCCOc2ccc(Cl)cc2)cc1`, for which the EC50 was over 7.24 µM and the IC50 was over 7.24 µM.

On to `Cc1ccc(/C=C/C(=N/NC(=O)N/N=C(/C=C/c2ccc(C)cc2)C(C)C)C(C)C)cc1`, for which the EC50 was over 100 µM and the IC50 is over 100 µM.

In the case of `CCCCN=C(NC#N)N(Cc1ccccc1)Cc1ccccc1`, the EC50 was over 100 µM and the IC50 was 22.9 µM.

As to `COc1cc2c(cn1)[nH]c1ccccc12`, the result was inactive.

Regarding `CCCCn1c(=O)cc(C(=O)O)c2ccccc21`, the EC50 was over 200 µM and the IC50 is over 200 µM.

On to `COc1cc2c(cc1O)C1Cc3cc(OC)c(OC)cc3C(C2)N1C` (stereo not given), for which the EC50 was over 39.8 µM and the IC50 was over 39.8 µM.

Take `CC(=O)[O-].N.N.N.N.[Co+3].[O-][Cl+3]([O-])([O-])[O-].[OH3+]`: the result was inactive.

For the molecule `C=CO/N=[N+](\[O-])N(CC)CC`, the EC50 was over 200 µM and the IC50 was over 200 µM.

For `Cc1cc(C)c(C(=O)O)c(SSc2cc(C)cc(C)c2C(=O)O)c1`, the EC50 is 46.8 µM and the IC50 was 123 µM.

For the molecule `N#CC1CC2(C1)OCCS2` (stereo not given), the outcome was inactive.

Regarding `CN(CCC#N)C1=CCCC1`, the EC50 was over 200 µM and the concentration for half-maximal inhibition (IC50) is over 200 µM.

Turning to `CC(=O)C=O`, the outcome was inactive.

As to `O=C(Nc1ccc(Cl)cc1)/C(Cc1cccc[n+]1[O-])=N\Nc1ccc([N+](=O)[O-])cc1[N+](=O)[O-]`, the EC50 was over 107 µM and the IC50 was over 107 µM.

Regarding `Cc1n[nH]c(=O)n1/N=C/c1ccc([N+](=O)[O-])cc1`, the EC50 was over 200 µM and the IC50 is over 100 µM.

As for `COC(=O)C(C(=O)C(=O)Nc1nc(=S)[nH][nH]1)c1csc(N)n1` (stereo not given), the EC50 is over 724 µM and the IC50 is over 724 µM.

With `CC(C)CCCC(C)[C@H]1CC[C@H]2[C@H]3CC[C@@H]4C[C@H](CCC=C(c5cc(Cl)c(O)c(C(=O)O)c5)c5cc(Cl)c(O)c(C(=O)O)c5)CC[C@]4(C)[C@H]3CC[C@]12C` (stereo not given in full), the EC50 is 41.7 µM and the IC50 is over 200 µM.

For the molecule `c1ccc2c(CCNC3=NCCO3)cccc2c1`, the result was inactive.

Turning to `CN1CCN(c2[nH]c(=O)n(Cc3ccccc3)c(=S)c2C#N)CC1`, the EC50 was over 200 µM and the IC50 was over 200 µM.

In the case of `O=C(/C=C/c1ccsc1)c1ccsc1`, the EC50 was over 200 µM and the IC50 was 3.39 µM.

As for `OCc1cc2c(ccc3sc4ccc5sc6ccc7ncccc7c6c5c4c32)s1`, the EC50 is over 200 µM and the IC50 was 11.2 µM.

Regarding `CC1(C)/C(=N\Nc2ccc([N+](=O)[O-])cc2[N+](=O)[O-])C2CCC1C2` (stereo not given), the EC50 is over 200 µM and the IC50 is over 200 µM.

Take `C/C(=N\NC(N)=S)c1ccc(C2CCCCC2)cc1`: the outcome was inactive.

As to `O=C(NCCCNC(=O)c1ccc2c(O)c(O)ccc2c1)c1ccc2c(O)c(O)ccc2c1`, the EC50 is over 151 µM and the IC50 came to 15.5 µM.

Take `CCCCCCCCCCCCNS(=O)(=O)c1ccc(-c2c3nc(c(-c4ccc(S(=O)(=O)NCCCCCCCCCCCC)cc4)c4ccc([nH]4)c(-c4ccc(S(=O)(=O)NCCCCCCCCCCCC)cc4)c4nc(c(-c5ccc(S(=O)(=O)NCCCCCCCCCCCC)cc5)c5ccc2[nH]5)C=C4)C=C3)cc1`: the EC50 is over 100 µM and the IC50 is over 100 µM.

As for `CCCCCCCCCCCCC/C=C/[C@H]1[C@@H](C(=O)OC)N1S(=O)c1ccc(C)cc1` (stereo not given in full), the EC50 is over 200 µM and the IC50 was determined as 74.1 µM.

As to `N#CCCN(CCC#N)c1ccc(/C=C2\N=C(c3cc([N+](=O)[O-])ccc3Cl)OC2=O)cc1`, the EC50 is over 2.34 µM and the IC50 was found to be 0.575 µM.

Turning to `O=c1[nH]cnc2c1CN(c1ccccc1)C2`, the EC50 is over 234 µM and the IC50 was over 234 µM.

In the case of `COC(=O)c1cc2c(n1S(=O)(=O)c1ccc(C)cc1)C(=O)C(=O)c1[nH]cc(C(=O)OCc3ccccc3)c1-2`, the EC50 is over 200 µM and the IC50 is 0.38 µM.

Regarding `O=c1c2c([nH]c3c1ccc1[nH]c4c(c(=O)c13)CCCC4)CCCC2`, the EC50 is over 42.7 µM and the IC50 is over 42.7 µM.

`O=C1NC(=O)C2C1c1[nH]c3ccccc3c1C1CCCC12` (stereo not given): the outcome was inactive.

As for `Cc1ccc(S(=O)(=O)n2c3c(c4ccccc42)CCN2C[C@H]([C@H](C)Br)CC[C@@H]32)cc1`, the EC50 is over 200 µM and the IC50 stood at 42.7 µM.

As for `O=C(NN1C(=O)C(Cl)C1c1ccc(O)cc1)c1ccccc1O` (stereo not given), the EC50 is over 21.9 µM and the IC50 was 10.2 µM.

In the case of `O=C(Cc1csc2[n+]1C(=O)/C(=C/c1cccc([N+](=O)[O-])c1)S2)Nc1ccccc1`, the result was inactive.

`COc1cccc(/C=N/[N-]C(=O)c2ccncc2)c1[O-].[Cu+2].[OH3+]`: the EC50 was over 10.7 µM and the IC50 was over 10.7 µM.

With `C/C=C1\CN2CCc3c([nH]c4ccccc34)C2CC1C(=O)OC` (stereo not given), the EC50 was over 219 µM and the IC50 is over 219 µM.

For the molecule `COc1ccc(-c2nc(N3CCCC3)no2)cc1`, the EC50 is over 200 µM and the 50% inhibitory concentration (IC50) was determined as 195 µM.

For the molecule `O=C(c1ccccc1)C(O)(CC(c1ccccc1)[P+](c1ccccc1)(c1ccccc1)c1ccccc1)c1ccccc1` (stereo not given), the EC50 was over 200 µM and the IC50 amounted to 1.17 µM.

(Values after PubChem BioAssay AID179 (DTP/NCI, 2004).)
